# Active and inactive are the calls of the source. The rule behind the calls is not given here.
# Tests used:
# Calf thymus DNA [1] = assay: Binding affinity to calf thymus DNA assessed as DNA intercalation by measuring increase in DNA melting temperature by thermal denaturation based analysis; type: nucleic-acid assay; conditions: Bos taurus
# Albumin [2] = target: T1, Albumin (Homo sapiens, UniProt P02768); assay: Binding affinity to human serum albumin assessed as Stem-Volmer quenching constant at 298K by fluorescence based analysis; type: ADME; conditions: isolated protein
# Cell membrane [3] = assay: Induction of cell membrane damage in Staphylococcus aureus assessed as broken cell membrane at 2XMIC by SEM analysis; type: cell membranes
# Albumin [4] = target: T1, Albumin; assay: Binding affinity to human serum albumin assessed as Stem-Volmer quenching constant at 308K by fluorescence based analysis; type: ADME; conditions: isolated protein
# Albumin [5] = target: T1, Albumin; assay: Binding affinity to human serum albumin assessed as binding constant at 318K by fluorescence based analysis; type: ADME; conditions: isolated protein
# Cell membrane [6] = assay: Induction of cell membrane damage in Staphylococcus aureus assessed as loss of bacterial metabolic activity at MIC to 8XMIC by Alamar blue dye based fluorescence analysis; type: cell membranes
# Cell membrane [7] = assay: Induction of Outer membrane disruption in Staphylococcus aureus assessed as […] in fluorescence intensity at MIC to 4X MIC by NPN dye based fluorescence analysis
# Salmonella enterica = assay: Antibacterial activity against Salmonella enterica assessed as inhibition of bacterial growth by two-fold serial broth dilution method; type: functional
# Calf thymus DNA [8] = assay: Binding affinity to calf thymus DNA assessed as binding constant by fluorescence based analysis; type: nucleic-acid assay; conditions: Bos taurus
# Cell membrane [9] = assay: Induction of Inner membrane disruption in Staphylococcus aureus assessed as increase in fluorescence intensity at MIC to 4XMIC by EtBr dye based fluorescence analysis; type: cell membranes
# Staphylococcus aureus [10] = assay: Anti-biofilm activity against Staphylococcus aureus assessed as inhibition of biofilm formation at 1/8XMIC by crystal violet assay; type: functional
# Listeria = assay: Antibacterial activity against Listeria sps. assessed as inhibition of bacterial growth by two-fold serial broth dilution method; type: functional
# [11] = test system: Acinetobacter calcoaceticus; assay: Antibacterial activity against Acinetobacter calcoaceticus assessed as inhibition of bacterial growth by two-fold serial broth dilution method; type: functional
# Staphylococcus aureus [12] = assay: Ratio of MBC to MIC for Staphylococcus aureus; type: functional
# HEK293 [13] = assay: Cytotoxicity against human HEK293 cells at 0.1 uM by MTT assay; type: toxicity, cell-based; conditions: hek293, 0.1 µM
# Bacillus subtilis = assay: Antibacterial activity against Bacillus subtilis assessed as inhibition of bacterial growth by two-fold serial broth dilution method; type: functional
# Enterococcus faecalis [14] = assay: Bacteriostatic activity against Enterococcus faecalis assessed as inhibition of bacterial growth; type: functional
# HEK293 [15] = assay: Cytotoxicity against human HEK293 cells at 100 uM by MTT assay; type: toxicity, cell-based; conditions: hek293, 100 µM
# Escherichia coli = assay: Antibacterial activity against Escherichia coli assessed as inhibition of bacterial growth by two-fold serial broth dilution method; type: functional
# HEK293 [16] = assay: Cytotoxicity against human HEK293 cells at 10 uM by MTT assay; type: toxicity, cell-based; conditions: hek293, 10 µM
# Serratia marcescens = assay: Antibacterial activity against Serratia marcescens assessed as inhibition of bacterial growth by two-fold serial broth dilution method; type: functional
# Cell membrane [17] = assay: Induction of cell membrane damage in Staphylococcus aureus assessed as increase in leaked protein content at MIC to 8XMIC; type: cell membranes
# Albumin [18] = target: T1, Albumin; assay: Binding affinity to human serum albumin assessed as change in free energy at 308K by Van't Hoff plot analysis; type: ADME; conditions: isolated protein
# Cell membrane [19] = assay: Induction of cell membrane damage in Staphylococcus aureus assessed as corrugation with leakage of cellular contents at 2XMIC by SEM analysis; type: cell membranes
# Albumin [20] = target: T1, Albumin; assay: Binding affinity to human serum albumin assessed as change in entropy by Van't Hoff plot analysis; type: ADME; conditions: isolated protein
# Albumin [21] = target: T1, Albumin; assay: Binding affinity to human serum albumin assessed as binding constant at 308K by fluorescence based analysis; type: ADME; conditions: isolated protein
# Albumin [22] = target: T1, Albumin; assay: Binding affinity to human serum albumin assessed as change in free energy at 318K by Van't Hoff plot analysis; type: ADME; conditions: isolated protein
# Staphylococcus aureus [23] = assay: Anti-biofilm activity against Staphylococcus aureus assessed as inhibition of biofilm formation at 1/2XMIC by crystal violet assay; type: functional
# Albumin [24] = target: T1, Albumin; assay: Binding affinity to human serum albumin assessed as change in free energy at 298K by Van't Hoff plot analysis; type: ADME; conditions: isolated protein
# Staphylococcus aureus [25] = assay: Bactericidal activity against Staphylococcus aureus assessed as inhibition of bacterial growth at 1/4XMIC measured for 3 hrs by time-kill analysis; type: functional, organism-based
# Cell membrane [26] = assay: Induction of Inner membrane disruption in Staphylococcus aureus assessed as increase in fluorescence intensity at MIC to 4XMIC measured for 5 to 30 mins by EtBr dye based fluorescence analysis; type: cell membranes; conditions: time 5-30 min, TDE = time-dependent effect
# Enterococcus faecalis [27] = assay: Ratio of MBC to MIC for Enterococcus faecalis; type: functional
# Enterococcus faecalis [28] = assay: Antibacterial activity against Enterococcus faecalis assessed as inhibition of bacterial growth by two-fold serial broth dilution method; type: functional
# Albumin [29] = target: T1, Albumin; assay: Binding affinity to human serum albumin assessed as dynamic quenching by measuring decrease in decay time of HSA at 0 to 21 uM by time-resolved fluorescence analysis; type: ADME; conditions: isolated protein, dose 0-21 µM
# Albumin [30] = target: T1, Albumin; assay: Binding affinity to human serum albumin assessed as binding constant at 298K by fluorescence based analysis; type: ADME; conditions: isolated protein
# Calf thymus DNA [31] = assay: Binding affinity to calf thymus DNA assessed as quenching constant by fluorescence based analysis; type: nucleic-acid assay; conditions: Bos taurus
# Cell membrane [32] = assay: Induction of Outer membrane disruption in Staphylococcus aureus assessed as […] in fluorescence intensity at MIC to 4X MIC measured for 5 to 30 mins by NPN dye based fluorescence analysis; conditions: time 5-30 min, TDE = time-dependent effect
# Albumin [33] = target: T1, Albumin; assay: Binding affinity to human serum albumin assessed as binding constant by Benesi-Hildebrand equation based analysis; type: ADME; conditions: isolated protein
# Staphylococcus aureus [34] = assay: Bactericidal activity against Staphylococcus aureus assessed as decrease in bacterial absorbance at 1/2XMIC measured after 2 hrs by time-kill analysis; type: functional, organism-based
# Calf thymus DNA [35] = assay: Binding affinity to calf thymus DNA assessed as DNA intercalation by measuring quenching in emission band at 601 nm at 0 to 90 uM by ethidium bromide competitive displacement assay; type: nucleic-acid assay; conditions: Bos taurus; dose 0-90 µM
# Staphylococcus aureus [36] = assay: Antibacterial activity against Staphylococcus aureus assessed as inhibition of bacterial growth by two-fold serial broth dilution method; type: functional
# HEK293 [37] = assay: Cytotoxicity against human HEK293 cells at 0.01 uM by MTT assay; type: toxicity, cell-based; conditions: hek293, 0.01 µM
# Albumin [38] = target: T1, Albumin; assay: Binding affinity to human serum albumin assessed as change in enthalpy by Van't Hoff plot analysis; type: ADME; conditions: isolated protein
# Staphylococcus aureus [39] = assay: Antibacterial activity against Staphylococcus aureus assessed as inhibition of bacterial growth measured after 11 passages; type: functional, organism-based
# Albumin [40] = target: T1, Albumin; assay: Binding affinity to human serum albumin assessed as quenching constant at 298K by fluorescence based analysis; type: ADME; conditions: isolated protein
# Calf thymus DNA [41] = assay: Binding affinity to calf thymus DNA by Benesi-Hildebrand equation based analysis; type: nucleic-acid assay; conditions: Bos taurus
# Albumin [42] = target: T1, Albumin; assay: Binding affinity to human serum albumin assessed as hyperchromic shift at 280 nm at 0 to 18 uM by UV-Vis absorption spectroscopic analysis; type: ADME; conditions: isolated protein, dose 0-18 µM
# Staphylococcus aureus [43] = assay: Bactericidal activity against Staphylococcus aureus assessed as decrease in bacterial absorbance at MIC measured after 1 hr by time-kill analysis; type: functional, organism-based
# Staphylococcus aureus [44] = assay: Bactericidal activity against Staphylococcus aureus assessed as bacterial killing; type: functional
# Staphylococcus aureus [45] = assay: Anti-biofilm activity against Staphylococcus aureus assessed as inhibition of biofilm formation at 1/16XMIC by crystal violet assay; type: functional
# Staphylococcus aureus [46] = assay: Anti-biofilm activity against Staphylococcus aureus assessed as inhibition of biofilm formation at MIC by crystal violet assay; type: functional
# Calf thymus DNA [47] = assay: Binding affinity to calf thymus DNA assessed as hypochromic shift in absorption band at 344 nm at 5 uM by UV-Vis absorption spectroscopy; type: nucleic-acid assay; conditions: Bos taurus
# Albumin [48] = target: T1, Albumin; assay: Binding affinity to human serum albumin assessed as quenching in emission band at 350 nm at 0 to 35 uM at 298 to 318K by fluorescence based analysis; type: ADME; conditions: isolated protein, dose 0-35 µM
# Albumin [49] = target: T1, Albumin; assay: Binding affinity to human serum albumin assessed as increase in compound corresponding new band formation at 344 nm at 0 to 18 uM by UV-Vis absorption spectroscopic analysis; type: ADME; conditions: isolated protein, dose 0-18 µM
# Calf thymus DNA [50] = assay: Binding affinity to calf thymus DNA assessed as Stern-Volmer quenching constant by fluorescence based analysis; type: nucleic-acid assay; conditions: Bos taurus
# HEK293 [51] = assay: Cytotoxicity against human HEK293 cells at 1 uM by MTT assay; type: toxicity, cell-based; conditions: hek293, 1 µM
# Albumin [52] = target: T1, Albumin; assay: Binding affinity to human serum albumin assessed as Stem-Volmer quenching constant at 318K by fluorescence based analysis; type: ADME; conditions: isolated protein
# T1 sequence (P02768 whole entry): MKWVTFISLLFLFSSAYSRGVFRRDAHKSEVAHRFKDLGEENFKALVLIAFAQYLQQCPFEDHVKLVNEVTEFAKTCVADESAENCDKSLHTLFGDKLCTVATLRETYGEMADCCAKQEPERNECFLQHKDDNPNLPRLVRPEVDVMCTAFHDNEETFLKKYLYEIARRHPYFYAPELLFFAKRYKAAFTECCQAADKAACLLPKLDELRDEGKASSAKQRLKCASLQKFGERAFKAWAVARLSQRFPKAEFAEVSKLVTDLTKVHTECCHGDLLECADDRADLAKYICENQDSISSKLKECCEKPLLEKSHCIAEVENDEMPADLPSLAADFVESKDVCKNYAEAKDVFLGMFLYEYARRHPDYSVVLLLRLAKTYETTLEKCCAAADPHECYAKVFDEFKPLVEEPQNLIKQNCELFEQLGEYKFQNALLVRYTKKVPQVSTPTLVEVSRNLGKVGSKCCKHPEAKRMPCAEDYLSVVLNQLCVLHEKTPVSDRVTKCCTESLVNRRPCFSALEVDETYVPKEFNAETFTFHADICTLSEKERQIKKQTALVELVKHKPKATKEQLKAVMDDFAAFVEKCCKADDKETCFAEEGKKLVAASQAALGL
compound,measurement,setting,value
O=C1c2cccc3cccc(c23)C(=O)N1Nc1nc(NCc2ccccc2)nc(N2CCOCC2)n1,ΔTm,Calf thymus DNA [1],12.8 °C
same,KSV,Albumin [2],1.63 10^5/M
same,Activity,Cell membrane [3],Active
same,KSV,Albumin [4],1.18 10^5/M
same,Kb,Albumin [5],4.41 10^4/M
same,Activity,Cell membrane [6],Active
same,Activity,Cell membrane [7],Dose-Dependent Effect
same,MIC,Salmonella enterica,200 µg/mL
same,Kb,Calf thymus DNA [8],8.26 10^4/M
same,Activity,Cell membrane [9],Dose-Dependent Effect
same,inhibition (INH),Staphylococcus aureus [10],10%
same,MIC,Listeria,6.25 µg/mL
same,MIC,[11],200 µg/mL
same,Ratio,Staphylococcus aureus [12],2
same,Activity,HEK293 [13],12.2%
same,MIC,Bacillus subtilis,3.12 µg/mL
same,MBC,Enterococcus faecalis [14],0.19 µg/mL
same,Activity,HEK293 [15],9.01%
same,MIC,Escherichia coli,100 µg/mL
same,Activity,HEK293 [16],10.5%
same,MIC,Serratia marcescens,100 µg/mL
same,Activity,Cell membrane [17],Active
same,deltaG,Albumin [18],-1.62 kcal/mol
same,Activity,Cell membrane [19],Active
same,deltaS,Albumin [20],-5.88 J/mol.K
same,Kb,Albumin [21],6.61 10^4/M
same,deltaG,Albumin [22],-1.61 kcal/mol
same,inhibition (INH),Staphylococcus aureus [23],30%
same,deltaG,Albumin [24],-1.64 kcal/mol
same,Activity,Staphylococcus aureus [25],Active
same,Activity,Cell membrane [26],Tde
same,Ratio,Enterococcus faecalis [27],>=32
same,MIC,Enterococcus faecalis [28],0.003 µg/mL
same,Activity,Albumin [29],Active
same,Kb,Albumin [30],11.01 10^4/M
same,Kq,Calf thymus DNA [31],1.22 10^12/M/s
same,Activity,Cell membrane [32],Tde
same,Kb,Albumin [33],1.32 10^5/M
same,Activity,Staphylococcus aureus [34],Active
same,Activity,Calf thymus DNA [35],Active
same,MIC,Staphylococcus aureus [36],1.56 µg/mL
same,Activity,HEK293 [37],13.4%
same,deltaH,Albumin [38],-2.06 kcal/mol
same,Activity,Staphylococcus aureus [39],Active
same,Kq,Albumin [40],1.63 10^13/M
same,Kb,Calf thymus DNA [41],5.99 10^4/M
same,Activity,Albumin [42],Active
same,Activity,Staphylococcus aureus [43],Active
same,MBC,Staphylococcus aureus [44],3.25 µg/mL
same,inhibition (INH),Staphylococcus aureus [45],5%
same,inhibition (INH),Staphylococcus aureus [46],60%
same,Activity,Calf thymus DNA [47],Active
same,Activity,Albumin [48],Active
same,Activity,Albumin [49],Active
same,KSV,Calf thymus DNA [50],1.22 10^4/M
same,Activity,HEK293 [51],11.8%
same,KSV,Albumin [52],1.13 10^5/M
